Values after ≈ are worked out from the molar mass of the structure shown. Where two headings read alike, the source gives them in different places.
How the values were obtained:
[1] = test system: Staphylococcus aureus ATCC 6538; assay: Antimicrobial susceptibility assay in vitro (MIC determination); assay type: cell-based; conditions: ATCC6538
[2] = test system: Candida albicans ATCC 90028; assay: In vitro antifungal susceptibility testing (MIC determination); assay type: cell-based; conditions: ATCC90028
[3] = test system: Reovirus-1; assay: Antiviral activity in Vero cell cultures; assay type: cell-based; conditions: Vero cells
[4] = test system: HL-60 (acute myeloid leukemia); assay: Antiproliferative screening (cytostatic activity); assay type: cell-based; conditions: Homo sapiens, HL-60; 72 h, IncuCyte imaging; read-out: IC50 HL-60
Method: (§1) Cytostatic activity was evaluated in vitro on nine different types of human tumor cell lines: Capan-1, Hap1, HCT-116, and NCI-H460, as well as hematological tumors such as DND-41, HL-60, K-562, MM.1S and Z-138 as described previously. All human tumor cell lines were acquired from the American Type Culture Collection (ATCC, Manassas, VA, USA), except for the DND-41 cell line which was purchased from the Deutsche Sammlung von Mikroorganismen und Zellkulturen (DSMZ Leibniz-Institut, Braunschweig, Germany) and the Hap1 cell line which was purchased from Horizon Discovery (Waterbeach, UK). Capan-1, Hap1, HL-60, K-562, Z-138, MM.1S and DND-41 were cultured in Iscove′s Modified Dulbecco′s Medium (IMDM, Gibco Life Technologies, Gaithersburg, MD, USA), HCT-116 were grown in McCoy′s 5A Medium (Gibco Life Technologies) and NCI-H460 were cultured in RPMI (Gibco Life Technologies). All media were supplemented with 10% FBS (HyClone, GE Healthcare Life Sciences, USA). Adherent cell lines HCT-116, Hap1, NCI-H460, and Capan-1 cells were seeded at a density between 400 and 1250 cells per well, in 384-well, black-walled, clear-bottomed tissue culture plates (Greiner Bio-One, Kremsmünster, Germany). After overnight incubation, cells were treated with test compounds at four different concentrations ranging from 100 to 0.8 µM. Suspension cell lines HL-60, K-562, Z-138, MM.1S, and DND-41 were seeded at densities ranging from 3000 to 10,000 cells per well in 384-well, black-walled, clear-bottomed tissue culture plates containing test compounds at the same four concentrations. The plates were incubated and monitored at 37 °C for 72 h in an IncuCyte (Essen BioScience Inc., Ann Arbor, MI, USA) for real-time imaging. Images were taken every 3 h, with one field image per well under 10× magnification. All compounds were tested with duplicate data points and averaged. […]

[5] = test system: Hap1 (chronic myeloid leukemia); assay: Antiproliferative screening (cytostatic activity); assay type: cell-based; conditions: Homo sapiens, HAP1; 72 h, IncuCyte imaging; read-out: IC50 Hap1
Method: as §1

[6] = test system: Sindbis Virus; assay: microbe, parasite or virus in culture; assay type: cell-based; conditions: Vero
[7] = test system: Punta Toro Virus; assay: microbe, parasite or virus in culture; assay type: cell-based; conditions: Vero cells
[8] = test system: Staphylococcus aureus ATCC 6538; assay: Minimum biofilm eradication assay; assay type: cell-based
Method: (§2) MBECs of fumardiamides 4a–f and succindiamides 5a–f were determined as follows. Each well (96-well plate) was filled with 100 µl of bacterial (10^7 CFU/mL) or yeast (5 × 10^6 CFU/mL) suspension. When the inhibition of yeast biofilm formation was tested, the wells were pre-treated with fetal bovine serum (FBS) (250 µl per well). Negative controls contained broth only. Positive controls were performed using standard antimicrobial drugs gentamycin (Gen) and Amph, respectively. […] Following incubation period, each well was aspirated, washed three times and vigorously shaken to remove all non-adherent bacteria/yeast. The remaining attached cells were fixed with methanol (15 min) and the plates were left to dry overnight. Formed biofilm was stained with crystal violet (1%, 5 min). Excess stain was rinsed by placing the plate under running tap water and the plates were left to dry. Adherent cells were solubilized using ethanol. The absorbance was read at 570 nm. The MBEC value represents the lowest dilution of a compound at which bacteria fail to grow.

[9] = test system: Serratia marcescens ATCC 10905; assay: Minimum biofilm eradication assay; assay type: cell-based
Method: as §2

[10] = test system: Bacillus cereus ATCC 11778; assay: Minimum biofilm eradication assay; assay type: cell-based
Method: as §2

[11] = test system: Proteus mirabilis MFBF 10430; assay: Minimum biofilm eradication assay; assay type: cell-based
Method: as §2

[12] = test system: Enterococcus faecalis ATCC 29212; assay: Minimum biofilm eradication assay; assay type: cell-based
Method: as §2

[13] = test system: Bacillus subtilis ATCC 6633; assay: Minimum biofilm eradication assay; assay type: cell-based
Method: as §2

[14] = test system: Escherichia coli ATCC 10536; assay: Minimum biofilm eradication assay; assay type: cell-based
Method: as §2

[15] = test system: Pseudomonas aeruginosa ATCC 27853; assay: Minimum biofilm eradication assay; assay type: cell-based
Method: as §2

[16] = test system: Salmonella enteritidis MFBF 11945; assay: Minimum biofilm eradication assay; assay type: cell-based
Method: as §2

[17] = test system: Acinetobacter baumannii MFBF 10913; assay: Minimum biofilm eradication assay; assay type: cell-based
Method: as §2

[18] = test system: Para-Influenza-3 Virus; assay: organism not typed; assay type: cell-based; conditions: Vero cells
[19] = test system: Streptococcus pneumoniae MFBF 10373; assay: Antimicrobial susceptibility assay in vitro (MIC determination); assay type: cell-based; conditions: MFBF10373, serial microdilution, 18 h, 35 °C
Method: (§3) Stock solutions of the tested compounds were prepared in DMSO (10 mg/mL). […] The absorbance was recorded at 540 nm. As a positive quality control (susceptibility of strains) tetracycline hydrochloride (TC) (Sigma-Aldrich) was added into wells.

[20] = test system: Bacillus cereus ATCC 11778; assay: as above; assay type: cell-based; conditions: ATCC11778, serial microdilution, 18 h, 35 °C
Method: as §3

[21] = test system: Bacillus subtilis ATCC 6633; assay: as above; assay type: cell-based; conditions: ATCC6633, serial microdilution, 18 h, 35 °C
Method: as §3

[22] = test system: Acinetobacter baumannii MFBF 10913; assay: as above; assay type: cell-based; conditions: MFBF10913, serial microdilution, 18 h, 35 °C
Method: as §3

[23] = MTS, read-out: EC50 Reovirus-1, MTS
[24] = read-out: EC50 Sindbis Virus, MTS
[25] = MTS, read-out: EC50 Punta Toro Virus, MTS
[26] = MTS, read-out: EC50 Para-Influenza-3 Virus, MTS

COc1cc(NC(C)CCCNC(=O)/C=C/C(=O)Nc2cccc(F)c2)c2ncccc2c1 (stereo not shown) [Compound 4a, (2E)-N-(3-Fluorophenyl)-N′-{4-[(6-methoxyquinolin-8-yl)amino]pentyl}but-2-enediamide]
MIC [1]: > 100 µg/mL | MIC [2]: > 100 µg/mL | EC50 [3, 23]: > 50 µM | IC50 [4]: 5.7 µM | IC50 [5]: 19.3 µM | EC50 [6, 24]: > 50 µM | EC50 [7, 25]: > 50 µM | MBEC [8]: 12.5 µg/mL | MBEC [9]: 25 µg/mL | MBEC [10]: >100 µg/mL | MBEC [11]: >100 µg/mL | MBEC [12]: 25 µg/mL | MBEC [13]: 50 µg/mL | MBEC [14]: 100 µg/mL | MBEC [15]: 25 µg/mL | MBEC [16]: >100 µg/mL | MBEC [17]: 6.3 µg/mL | EC50 [18, 26]: > 50 µM | melting point: 203 to 204 °C | MIC [19]: > 100 µg/mL | MIC [20]: > 100 µg/mL | MIC [21]: 50 µg/mL (≈ 111 µM) | MIC [22]: > 100 µg/mL

COc1cc(NC(C)CCCNC(=O)/C=C/C(=O)Nc2ccc(F)cc2)c2ncccc2c1 (stereo not shown) [Compound 4b, (2E)-N-(4-Fluorophenyl)-N′-{4-[(6-methoxyquinolin-8-yl)amino]pentyl}but-2-enediamide]
MIC [1]: 12.5 µg/mL (≈ 27.7 µM) | MIC [2]: > 100 µg/mL | EC50 [3, 23]: > 50 µM | IC50 [4]: > 100 µM | IC50 [5]: 66.4 µM | EC50 [6, 24]: > 50 µM | EC50 [7, 25]: > 50 µM | MBEC [8]: 12.5 µg/mL | MBEC [9]: >100 µg/mL | MBEC [10]: 25 µg/mL | MBEC [11]: 25 µg/mL | MBEC [12]: 25 µg/mL | MBEC [13]: 25 µg/mL | MBEC [14]: 50 µg/mL | MBEC [15]: 12.5 µg/mL | MBEC [16]: >100 µg/mL | MBEC [17]: 25 µg/mL | EC50 [18, 26]: > 50 µM | melting point: 226 to 227 °C | MIC [19]: 12.5 µg/mL (≈ 27.7 µM) | MIC [20]: 25 µg/mL (≈ 55.5 µM) | MIC [21]: 25 µg/mL (≈ 55.5 µM) | MIC [22]: 25 µg/mL (≈ 55.5 µM)

COc1cc(NC(C)CCCNC(=O)/C=C/C(=O)Nc2cccc(Cl)c2)c2ncccc2c1 (stereo not shown) [Compound 4c, (2E)-N-(3-Chlorophenyl)-N′-{4-[(6-methoxyquinolin-8-yl)amino]pentyl}but-2-enediamide]
MIC [1]: 12.5 µg/mL (≈ 26.8 µM) | MIC [2]: > 100 µg/mL | EC50 [3, 23]: 3.8 µM | EC50 ([3]; visual CPE score, read-out: EC50 Reovirus-1, Visual CPE Score): > 50 µM | IC50 [4]: > 100 µM | IC50 [5]: > 100 µM | EC50 [6, 24]: 3 µM | EC50 ([6]; read-out: EC50 Sindbis Virus, Visual CPE Score): > 50 µM | EC50 [7, 25]: 5.5 µM | EC50 ([7]; visual CPE score, read-out: EC50 Punta Toro Virus, Visual CPE Score): > 50 µM | MBEC [8]: 12.5 µg/mL | MBEC [9]: >100 µg/mL | MBEC [10]: 25 µg/mL | MBEC [11]: >100 µg/mL | MBEC [12]: 25 µg/mL | MBEC [13]: 50 µg/mL | MBEC [14]: 50 µg/mL | MBEC [15]: 50 µg/mL | MBEC [16]: >100 µg/mL | MBEC [17]: 100 µg/mL | EC50 [18, 26]: > 50 µM | EC50 ([18]; visual CPE score, read-out: EC50 Para-Influenza-3 Virus, Visual CPE Score): > 50 µM | melting point: 187 to 188 °C | MIC [19]: 25 µg/mL (≈ 53.5 µM) | MIC [20]: 25 µg/mL (≈ 53.5 µM) | MIC [21]: 50 µg/mL (≈ 107 µM) | MIC [22]: 25 µg/mL (≈ 53.5 µM)

Reference: paper PMC6100582 (Molecules : A Journal of Synthetic Chemistry and Natural …, 2018)
